Test results: the supplement of paper PMC7840683
Where a name gives a salt, the structure may show the parent alone. ± gives the standard deviation of the averaged measurements.

System: HepaRG
Assay: LDH release cytotoxicity, % of total lysis control; higher = more cytotoxic
Settings: 48 h
Procedure, shortened: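 Single-lot HepaRG cells on collagen I-coated 96-well plates were exposed for 48 h in duplicate, in serum-free induction medium with 0.5% DMSO, to eight-point half-log series (test chemicals top 100 µM). Total lysis wells received 0.1% Triton X, and LDH leakage into 50 µL spent medium was read as resorufin fluorescence (CytoTox-ONE, Tecan Safire). Percent cytotoxicity was normalized to on-plate vehicle and total lysis controls and averaged over the duplicates.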

CC(C)(C)C(=O)C(Oc1ccc(Cl)cc1)n1cncn1 (centres undefined) [Triadimefon]
LDH release cytotoxicity (0.031939 µM): -0.92 ± 0.21% | LDH release cytotoxicity (0.101 µM): -0.0413 ± 0.61% | LDH release cytotoxicity (0.31939 µM): -0.707 ± 0.2% | LDH release cytotoxicity (1.01 µM): -0.437 ± 0.008% | LDH release cytotoxicity (3.1939004 µM): 0.192 ± 0.53% | LDH release cytotoxicity (10.1 µM): -0.0819 ± 0.64% | LDH release cytotoxicity (31.939 µM): 0.1 ± 0.59% | LDH release cytotoxicity (101 µM): 0.544 ± 0.74%

CC(C)(C)C(O)C(Oc1ccc(Cl)cc1)n1cncn1 (centres undefined) [Triadimenol]
LDH release cytotoxicity (0.03162 µM): -1.62 ± 0.58% | LDH release cytotoxicity (0.1 µM): -2.06 ± 0.53% | LDH release cytotoxicity (0.3162278 µM): -1.64 ± 1.5% | LDH release cytotoxicity (1 µM): -1.25 ± 0.42% | LDH release cytotoxicity (3.16228 µM): -1.3 ± 0.73% | LDH release cytotoxicity (10 µM): -0.0607 ± 0.57% | LDH release cytotoxicity (31.6228 µM): -0.253 ± 0.65% | LDH release cytotoxicity (100 µM): 0.57 ± 0.18%

CC12C=CC(=O)C=C1CCC1C3CC(O)C(O)(C(=O)CO)C3(C)CC(O)C12F (centres undefined) [Triamcinolone]
LDH release cytotoxicity (0.03162 µM): -1.85 ± 0.34% | LDH release cytotoxicity (0.1 µM): -0.492 ± 0.35% | LDH release cytotoxicity (0.3162278 µM): -1.39 ± 0.53% | LDH release cytotoxicity (1 µM): -1.34 ± 0.22% | LDH release cytotoxicity (3.16228 µM): -0.853 ± 0.06% | LDH release cytotoxicity (10 µM): -0.509 ± 0.53% | LDH release cytotoxicity (31.6228 µM): -0.546 ± 0.2% | LDH release cytotoxicity (100 µM): 2.9 ± 0.79%

CCCCSP(=O)(SCCCC)SCCCC [Tribufos]
LDH release cytotoxicity (0.03162 µM): -1.39 ± 0.84% | LDH release cytotoxicity (0.1 µM): -0.774 ± 0.82% | LDH release cytotoxicity (0.3162278 µM): -1.31 ± 0.24% | LDH release cytotoxicity (1 µM): -1.25 ± 0.2% | LDH release cytotoxicity (3.16228 µM): -0.815 ± 0.25% | LDH release cytotoxicity (10 µM): -0.0795 ± 0.058% | LDH release cytotoxicity (31.6228 µM): -0.648 ± 0.29% | LDH release cytotoxicity (100 µM): 0.564 ± 0.25%

CCCCN(CCCC)CCCC [Tributylamine]
LDH release cytotoxicity (0.03162 µM): -2.12 ± 0.98% | LDH release cytotoxicity (0.1 µM): -1.33 ± 1.8% | LDH release cytotoxicity (0.3162278 µM): -2.67 ± 0.73% | LDH release cytotoxicity (1 µM): -2.57 ± 1% | LDH release cytotoxicity (3.16228 µM): -2.21 ± 0.52% | LDH release cytotoxicity (10 µM): -2.383 ± 0.0034% | LDH release cytotoxicity (31.6228 µM): -2.97 ± 0.18% | LDH release cytotoxicity (100 µM): 3.29 ± 1.9%

CCC[CH2][Sn]([Cl])([CH2]CCC)[CH2]CCC [Tributyltin chloride]
LDH release cytotoxicity (0.031623 µM): 0.564 ± 1.9% | LDH release cytotoxicity (0.1 µM): -3.6 ± 1.2% | LDH release cytotoxicity (0.316228 µM): -2.2 ± 0.71% | LDH release cytotoxicity (1 µM): -2.91 ± 0.74% | LDH release cytotoxicity (3.16228 µM): -3.46 ± 0.11% | LDH release cytotoxicity (10 µM): -2.765 ± 0.018% | LDH release cytotoxicity (31.6228 µM): -1.81 ± 0.11% | LDH release cytotoxicity (100 µM): 0.00684 ± 1.1%

C=C(C)C(=O)[O][Sn]([CH2]CCC)([CH2]CCC)[CH2]CCC [Tributyltin methacrylate]
LDH release cytotoxicity (0.03162 µM): -1.27 ± 0.67% | LDH release cytotoxicity (0.1 µM): -1.27 ± 0.21% | LDH release cytotoxicity (0.3162278 µM): -0.912 ± 0.44% | LDH release cytotoxicity (1 µM): -1.5 ± 0.47% | LDH release cytotoxicity (3.16228 µM): 37.9 ± 0.45% | LDH release cytotoxicity (10 µM): 56.38 ± 0.14% | LDH release cytotoxicity (31.6228 µM): 55.58 ± 0.35% | LDH release cytotoxicity (100 µM): 59.2 ± 1.2%

COP(=O)(OC)C(O)C(Cl)(Cl)Cl (centres undefined) [Trichlorfon]
LDH release cytotoxicity (0.03162 µM): 0.0437 ± 1.6% | LDH release cytotoxicity (0.1 µM): -1.39 ± 0.081% | LDH release cytotoxicity (0.3162278 µM): -0.758 ± 0.2% | LDH release cytotoxicity (1 µM): -1.43 ± 0.39% | LDH release cytotoxicity (3.16228 µM): 19.7 ± 0.21% | LDH release cytotoxicity (10 µM): 73.1 ± 2.5% | LDH release cytotoxicity (31.6228 µM): 76.8 ± 2.2% | LDH release cytotoxicity (100 µM): 76.7 ± 1.5%

O=C(O)C(Cl)(Cl)Cl [Trichloroacetic acid]
LDH release cytotoxicity (0.03162 µM): -0.739 ± 0.85% | LDH release cytotoxicity (0.1 µM): -2.11 ± 0.056% | LDH release cytotoxicity (0.3162278 µM): -2.765 ± 0.0095% | LDH release cytotoxicity (1 µM): -2.27 ± 0.54% | LDH release cytotoxicity (3.16228 µM): -2.74 ± 0.85% | LDH release cytotoxicity (10 µM): -2.07 ± 0.18% | LDH release cytotoxicity (31.6228 µM): -1.13 ± 0.15% | LDH release cytotoxicity (100 µM): 0.84 ± 1.1%

O=C(Nc1ccc(Cl)cc1)Nc1ccc(Cl)c(Cl)c1 [Triclocarban]
LDH release cytotoxicity (0.03162 µM): -2.18 ± 0.41% | LDH release cytotoxicity (0.1 µM): -1.67 ± 0.93% | LDH release cytotoxicity (0.3162278 µM): -1.81 ± 0.65% | LDH release cytotoxicity (1 µM): -1.44 ± 1.4% | LDH release cytotoxicity (3.16228 µM): -1.83 ± 0.3% | LDH release cytotoxicity (10 µM): -0.606 ± 2.2% | LDH release cytotoxicity (31.6228 µM): -1.24 ± 0.34% | LDH release cytotoxicity (100 µM): 0.167 ± 2%

O=C(O)COc1nc(Cl)c(Cl)cc1Cl [Triclopyr]
LDH release cytotoxicity (0.03162 µM): -0.728 ± 0.43% | LDH release cytotoxicity (0.1 µM): -2.08 ± 0.22% | LDH release cytotoxicity (0.3162278 µM): -1.59 ± 0.14% | LDH release cytotoxicity (1 µM): -1.77 ± 0.51% | LDH release cytotoxicity (3.16228 µM): -1.2 ± 0.3% | LDH release cytotoxicity (10 µM): 0.578 ± 0.15% | LDH release cytotoxicity (31.6228 µM): 34.7 ± 3.1% | LDH release cytotoxicity (100 µM): 45.6 ± 2.5%

Oc1cc(Cl)ccc1Oc1ccc(Cl)cc1Cl [Triclosan]
LDH release cytotoxicity (0.0322552 µM): -1.38 ± 0.38% | LDH release cytotoxicity (0.102 µM): -2.17 ± 0.73% | LDH release cytotoxicity (0.322552 µM): -2.07 ± 0.23% | LDH release cytotoxicity (1.02 µM): -1.47 ± 0.84% | LDH release cytotoxicity (3.2255232 µM): -2.05 ± 1.2% | LDH release cytotoxicity (10.2 µM): -1.6 ± 1.3% | LDH release cytotoxicity (32.2552 µM): -1.09 ± 1.9% | LDH release cytotoxicity (102 µM): -1.09 ± 0.31%

CCCCCCCCCCCCCN1CC(C)OC(C)C1 (centres undefined) [Tridemorph]
LDH release cytotoxicity (0.0322552 µM): -2.04 ± 1.1% | LDH release cytotoxicity (0.102 µM): -2.33 ± 0.85% | LDH release cytotoxicity (0.322552 µM): -1.56 ± 0.26% | LDH release cytotoxicity (1.02 µM): -2.46 ± 1% | LDH release cytotoxicity (3.2255232 µM): -1.14 ± 0.89% | LDH release cytotoxicity (10.2 µM): -0.844 ± 0.88% | LDH release cytotoxicity (32.2552 µM): -0.534 ± 0.43% | LDH release cytotoxicity (102 µM): 71.8 ± 7.5%

OCCN(CCO)CCO [Triethanolamine]
LDH release cytotoxicity (0.03162 µM): -0.32 ± 0.27% | LDH release cytotoxicity (0.1 µM): -0.911 ± 0.6% | LDH release cytotoxicity (0.3162278 µM): -1.61 ± 0.09% | LDH release cytotoxicity (1 µM): -1.26 ± 0.23% | LDH release cytotoxicity (3.16228 µM): -1.19 ± 1.4% | LDH release cytotoxicity (10 µM): -0.416 ± 1.2% | LDH release cytotoxicity (31.6228 µM): -0.346 ± 0.72% | LDH release cytotoxicity (100 µM): 1.04 ± 0.38%

CCCCCCCC[Si](OCC)(OCC)OCC [Triethoxyoctylsilane]
LDH release cytotoxicity (0.03162 µM): -0.684 ± 0.49% | LDH release cytotoxicity (0.1 µM): 0.171 ± 0.31% | LDH release cytotoxicity (0.3162278 µM): -0.00576 ± 0.17% | LDH release cytotoxicity (1 µM): -0.327 ± 0.22% | LDH release cytotoxicity (3.16228 µM): 0.39 ± 0.57% | LDH release cytotoxicity (10 µM): 0.433 ± 0.79% | LDH release cytotoxicity (31.6228 µM): 0.376 ± 0.72% | LDH release cytotoxicity (100 µM): 1.59 ± 0.21%

CCOC(=O)CC(O)(CC(=O)OCC)C(=O)OCC [Triethyl citrate]
LDH release cytotoxicity (0.03162 µM): -0.555 ± 0.32% | LDH release cytotoxicity (0.1 µM): -0.568 ± 0.47% | LDH release cytotoxicity (0.3162278 µM): 0.176 ± 0.48% | LDH release cytotoxicity (1 µM): -0.693 ± 0.16% | LDH release cytotoxicity (3.16228 µM): -0.115 ± 0.89% | LDH release cytotoxicity (10 µM): 0.0535 ± 0.21% | LDH release cytotoxicity (31.6228 µM): -0.467 ± 0.89% | LDH release cytotoxicity (100 µM): 1.14 ± 0.85%

CCCCC(CC)C(=O)OCCOCCOCCOC(=O)C(CC)CCCC (centres undefined) [Triethylene glycol bis(2-ethylhexanoate)]
LDH release cytotoxicity (0.03162 µM): -2.57 ± 0.42% | LDH release cytotoxicity (0.1 µM): -3.93 ± 0.075% | LDH release cytotoxicity (0.3162278 µM): -3.45 ± 0.14% | LDH release cytotoxicity (1 µM): -3.69 ± 0.87% | LDH release cytotoxicity (3.16228 µM): -3.81 ± 1.2% | LDH release cytotoxicity (10 µM): -4.01 ± 1.4% | LDH release cytotoxicity (31.6228 µM): -5.53 ± 4% | LDH release cytotoxicity (100 µM): -1.89 ± 0.23%

CC(=O)OCCOCCOCCOC(C)=O [Triethylene glycol diacetate]
LDH release cytotoxicity (0.03162 µM): -2% | LDH release cytotoxicity (0.1 µM): -1.98 ± 0.077% | LDH release cytotoxicity (0.3162278 µM): -1.83 ± 0.78% | LDH release cytotoxicity (1 µM): -1.55 ± 0.41% | LDH release cytotoxicity (3.16228 µM): 0.0849 ± 2% | LDH release cytotoxicity (10 µM): -1.35 ± 0.28% | LDH release cytotoxicity (31.6228 µM): -0.553 ± 0.033% | LDH release cytotoxicity (100 µM): 1.55 ± 0.07%
